Reference: patent US7772241B2, “Variolin derivatives and their use as antitumor agents” (Pharma Mar S.A., priority 2001, dated 2010)

Experiments:
PANC-1 = test: Inhibition of cells growth by colorimetric (SRB) assay, PANC-1; details: for GI50 / CC50: Homo sapiens, PANC-1, 48 h; for GI50: read-out: GI50 PANC-1, SRB assay, 48 hours exposure; for CC50: read-out: LC50 PANC-1, SRB assay, 48 hours exposure; for TGI PANC-1: SRB assay, 48 hours exposure
Source text: (§1) The finality of these assays is to interrupt the growth of a “in vitro” tumor cell culture by means a continued exhibition of the cells to the sample to be testing.
(§2) This form of the assay employs 96 well cell culture microplates of 9 mm diameter (Faircloth, 1988; Mosmann, 1983). Most of the cell lines are obtained from American Type Culture Collection (ATCC) derived from different human cancer types.
(§3) Cells are maintained in RPMI 1640 10% FBS, supplemented with 0.1 g/l penicillin and 0.1 g/l streptomycin sulphate and then incubated at 37° C., 5% CO2 and 98% humidity. For the experiments, cells were harvested from subconfluent cultures using trypsin and resuspended in fresh medium before plating.
(§4) Cells are seeded in 96 well microtiter plates, at 5×10^3 cells per well in aliquots of 195 μl medium, and they are allowed to attach to the plate surface by growing in drug free medium for 18 hours. Afterward, samples are added in aliquots of 5 μl in a ranging from 10 to 10^−8 μg/ml, dissolved in DMSO/EtOH/PBS (0.5:0.5:99). After 48 hours exposure, the antitumor effect are measured by the SRB methodology: cells are fixed by adding 50 μl of cold 50% (wt/vol) trichloroacetic acid (TCA) and incubating for 60 minutes at 4° C. Plates are washed with deionized water and dried. One hundred μl of SRB solution (0.4% wt/vol in 1% acetic acid) is added to each microtiter well and incubated for 10 minutes at room temperature. Unbound SRB is removed by washing with 1% acetic acid. Plates are air dried and bound stain is solubilized with Tris buffer. Optical densities are read on a automated spectrophotometric plate reader at a single wavelength of 490 nm.
(§5) The values for mean +/−SD of data from triplicate wells are calculated. Some parameters for cellular responses can be calculated: GI=growth inhibition, TGI=total growth inhibition (cytostatic effect) and LC=cell killing (cytotoxic effect).

SK-MEL-28 = test: Inhibition of cells growth by colorimetric (SRB) assay, SK-MEL-28; details: for GI50 / CC50: Homo sapiens, SK-MEL-28, 48 h; for GI50: read-out: GI50 MEL-28, SRB assay, 48 hours exposure; for CC50: read-out: LC50 MEL-28, SRB assay, 48 hours exposure; for TGI MEL-28: SRB assay, 48 hours exposure
Source text: as §1, §2, §3, §4, §5

SK-OV-3 = test: Inhibition of cells growth by colorimetric (SRB) assay, SK-OV-3; details: for GI50 / CC50: Homo sapiens, SK-OV-3, 48 h; for GI50: read-out: GI50 SKOV-3, SRB assay, 48 hours exposure; for CC50: read-out: LC50 SKOV-3, SRB assay, 48 hours exposure; for TGI SKOV-3: SRB assay, 48 hours exposure
Source text: as §1, §2, §3, §4, §5

IGROV-ET = test: Inhibition of cells growth by colorimetric (SRB) assay, IGROV-ET; details: for GI50 / CC50: Homo sapiens, 48 h; for GI50: read-out: GI50 IGROV-ET, SRB assay, 48 hours exposure; for CC50: read-out: LC50 IGROV-ET, SRB assay, 48 hours exposure; for TGI IGROV-ET: SRB assay, 48 hours exposure
Source text: as §1, §2, §3, §4, §5

K-562 = test: Inhibition of cells growth by colorimetric (SRB) assay, K-562; details: for GI50 / CC50: Homo sapiens, K562, 48 h; for GI50: read-out: GI50 K-562, SRB assay, 48 hours exposure; for CC50: read-out: LC50 K-562, SRB assay, 48 hours exposure; for TGI K-562: SRB assay, 48 hours exposure
Source text: as §1, §2, §3, §4, §5

DU-145 = test: Inhibition of cells growth by colorimetric (SRB) assay, DU-145; details: for GI50 / CC50: Homo sapiens, DU-145, 48 h; for GI50: read-out: GI50 DU-145, SRB assay, 48 hours exposure; for CC50: read-out: LC50 DU-145, SRB assay, 48 hours exposure; for TGI DU-145: SRB assay, 48 hours exposure
Source text: as §1, §2, §3, §4, §5

LoVo-Dox = test: Inhibition of cells growth by colorimetric (SRB) assay, LoVo-Dox; details: for GI50 / CC50: Homo sapiens, 48 h; for GI50: read-out: GI50 LOVO-DOX, SRB assay, 48 hours exposure; for CC50: read-out: LC50 LOVO-DOX, SRB assay, 48 hours exposure; for TGI LOVO-DOX: SRB assay, 48 hours exposure
Source text: as §1, §2, §3, §4, §5

IGROV-1 = test: Inhibition of cells growth by colorimetric (SRB) assay, IGROV-1; details: for GI50 / CC50: Homo sapiens, IGROV-1, 48 h; for GI50: read-out: GI50 IGROV, SRB assay, 48 hours exposure; for CC50: read-out: LC50 IGROV, SRB assay, 48 hours exposure; for TGI IGROV: SRB assay, 48 hours exposure
Source text: as §1, §2, §3, §4, §5

A-549 = test: Inhibition of cells growth by colorimetric (SRB) assay, A-549; details: for GI50 / CC50: Homo sapiens, A549, 48 h; for GI50: read-out: GI50 A-549, SRB assay, 48 hours exposure; for CC50: read-out: LC50 A-549, SRB assay, 48 hours exposure; for TGI A-549: SRB assay, 48 hours exposure
Source text: as §1, §2, §3, §4, §5

HT-29 = test: Inhibition of cells growth by colorimetric (SRB) assay, HT-29; details: for GI50 / CC50: Homo sapiens, HT-29, 48 h; for GI50: read-out: GI50 HT-29, SRB assay, 48 hours exposure; for CC50: read-out: LC50 HT-29, SRB assay, 48 hours exposure; for TGI HT-29: SRB assay, 48 hours exposure
Source text: as §1, §2, §3, §4, §5

LoVo = test: Inhibition of cells growth by colorimetric (SRB) assay, LoVo; details: for GI50 / CC50: Homo sapiens, LoVo, 48 h; for GI50: read-out: GI50 LOVO, SRB assay, 48 hours exposure; for CC50: read-out: LC50 LOVO, SRB assay, 48 hours exposure; for TGI LOVO: SRB assay, 48 hours exposure
Source text: as §1, §2, §3, §4, §5

LNCaP = test: Inhibition of cells growth by colorimetric (SRB) assay, LNCaP; details: for GI50 / CC50: Homo sapiens, LNCaP, 48 h; for GI50: read-out: GI50 LN-caP, SRB assay, 48 hours exposure; for CC50: read-out: LC50 LN-caP, SRB assay, 48 hours exposure; for TGI LN-caP: SRB assay, 48 hours exposure
Source text: as §1, §2, §3, §4, §5

SMILES | GI50 (PANC-1) [µM] | CC50 (PANC-1) [µM] | TGI PANC-1 (PANC-1) | GI50 (SK-MEL-28) [µM] | CC50 (SK-MEL-28) [µM] | TGI MEL-28 (SK-MEL-28) | GI50 (SK-OV-3) [µM] | CC50 (SK-OV-3) [µM] | TGI SKOV-3 (SK-OV-3) | GI50 (IGROV-ET) [µM] | CC50 (IGROV-ET) [µM] | TGI IGROV-ET (IGROV-ET) | GI50 (K-562) [µM] | CC50 (K-562) [µM] | TGI K-562 (K-562) | GI50 (DU-145) [µM] | CC50 (DU-145) [µM] | TGI DU-145 (DU-145) | GI50 (LoVo-Dox) [µM] | CC50 (LoVo-Dox) [µM] | other results
Nc1nccc2c(-c3cccc([N+](=O)[O-])c3)c3cccnc3n12 [Compound 64] | 20.9 | 32.8 | 3.28E−05 | 21.7 | 32.8 | 3.28E−05 | 22.3 | 32.8 | 3.28E−05 | 18.9 | 32.8 | 3.28E−05 | 9.24 | 32.8 | 2.47E−05 | 31 | 32.8 | 3.28E−05 | 22.7 | 32.8 | TGI LOVO-DOX (LoVo-Dox): 3.28E−05; GI50 (IGROV-1): 14.4 µM; CC50 (IGROV-1): 32.8 µM; TGI IGROV (IGROV-1): 3.28E−05; GI50 (A-549): 31.6 µM; CC50 (A-549): 32.8 µM; TGI A-549 (A-549): 3.28E−05; GI50 (HT-29): 32.8 µM; CC50 (HT-29): 32.8 µM; TGI HT-29 (HT-29): 3.28E−05; GI50 (LoVo): 23.3 µM; CC50 (LoVo): 32.8 µM; TGI LOVO (LoVo): 3.28E−05; GI50 (LNCaP): 2.84 µM; CC50 (LNCaP): 19.9 µM; TGI LN-caP (LNCaP): 7.89E−06
CC(C)c1c2cccnc2n2c(N)nccc12 [Compound 66] | 8 | ≥ 44.2 | 2.16E−05 | 8.84 | 39.6 | 1.87E−05 | 15.7 | ≥ 44.2 | 3.04E−05 | 9.81 | 39.8 | 1.98E−05 | 21.6 | ≥ 44.2 | 4.42E−05 | 10 | ≥ 44.2 | 2.59E−05 | 2.22 | ≥ 44.2 | TGI LOVO-DOX (LoVo-Dox): 4.42E−05; GI50 (IGROV-1): 9.99 µM; CC50 (IGROV-1): 30.4 µM; TGI IGROV (IGROV-1): 1.74E−05; GI50 (A-549): 16.1 µM; CC50 (A-549): ≥ 44.2 µM; TGI A-549 (A-549): 4.42E−05; GI50 (HT-29): 17.9 µM; CC50 (HT-29): ≥ 44.2 µM; TGI HT-29 (HT-29): 4.42E−05; GI50 (LoVo): 17.1 µM; CC50 (LoVo): ≥ 44.2 µM; TGI LOVO (LoVo): 4.42E−05; GI50 (LNCaP): 12.5 µM; CC50 (LNCaP): ≥ 44.2 µM; TGI LN-caP (LNCaP): 2.55E−05
Cl.Nc1nccc2c(-c3ccncn3)c3cccnc3n12 [Compound 71] | 1.07 | 33.5 | 3.78E−06 | 0.556 | 2.5 | 1.18E−06 | 1.06 | 33.5 | 3.00E−06 | 1.04 | 31.9 | 2.75E−06 | 1.7 | 33.5 | 1.30E−05 | 0.75 | 33.5 | 2.31E−06 | 0.465 | 33.5 | TGI LOVO-DOX (LoVo-Dox): 1.79E−06; GI50 (IGROV-1): 0.797 µM; CC50 (IGROV-1): 4.15 µM; TGI IGROV (IGROV-1): 1.65E−06; GI50 (A-549): 1.1 µM; CC50 (A-549): 11.2 µM; TGI A-549 (A-549): 2.70E−06; GI50 (HT-29): 1.1 µM; CC50 (HT-29): 33.5 µM; TGI HT-29 (HT-29): 3.35E−06; GI50 (LoVo): 0.318 µM; CC50 (LoVo): 33.5 µM; TGI LOVO (LoVo): 1.84E−06; GI50 (LNCaP): 0.0502 µM; CC50 (LNCaP): 1.82 µM; TGI LN-caP (LNCaP): 2.15E−07
Nc1nccc2c(-c3ccnc(O)n3)c3cccnc3n12 [Compound 80] | 8.41 | 35.9 | 2.42E−05 | 2.42 | 19.7 | 7.08E−06 | 12.5 | 35.9 | 3.45E−05 | 2.48 | 35.9 | 9.45E−06 | 9.88 | 35.9 | 3.59E−05 | 1.81 | 35.9 | 8.70E−06 | 4.2 | 35.9 | TGI LOVO-DOX (LoVo-Dox): 2.01E−05; GI50 (IGROV-1): 1.55 µM; CC50 (IGROV-1): 24.8 µM; TGI IGROV (IGROV-1): 3.26E−06; GI50 (A-549): 7.73 µM; CC50 (A-549): 32.7 µM; TGI A-549 (A-549): 1.59E−05; GI50 (HT-29): 2.45 µM; CC50 (HT-29): 35.9 µM; TGI HT-29 (HT-29): 3.59E−05; GI50 (LoVo): 4.06 µM; CC50 (LoVo): 35.9 µM; TGI LOVO (LoVo): 1.48E−05; GI50 (LNCaP): 0.97 µM; CC50 (LNCaP): 2.79 µM; TGI LN-caP (LNCaP): 1.65E−06
